This note sets out measurements from patent publication US4142046A, “Intermediates for the preparation of 7-acyl-3-(substituted triazolylthiomethyl)cephalosporins” (SmithKline Corporation, priority 1976, dated 1979).

≈ marks a conversion by molar mass, not a printed value. Like-named read-outs stand apart in the source and are kept apart here.

As usually defined, the MIC is the least concentration at which growth counts as inhibited. The ED50 is the dose that gives a 50% effect, or the effect in half of the subjects. The low end stands for an effect at a small dose, the high end for a need for a large dose.

One test deals with S. villaluz. In words: MIC in vitro. As to conditions: read-out: MIC in vitro. The class given is cell-based. The method, then:
(§1) The compounds of Formula I have antibacterial activity against both Gram-positive and Gram-negative organisms. Minimum inhibitory concentrations (MIC's) ranged from 0.2 to >200 μg./ml. in in vitro testing. […] Compound numbers corresponding to structures are given in the experimental section.

For a further test, the system named is Salmonella ATCC 12176. Description: MIC in vitro. Particulars: ATCC12176. The class given is cell-based. How it is done: as §1
The test system of another test is S. aureus HH 127. Description: MIC in vitro. Type of test: cell-based. Particulars: Staphylococcus aureus. How it is done:
as §1

In a further test the test system is Shigella HH 117. Description: MIC in vitro. Particulars: for MIC: Shigella, HH117, Shigella HH 117. Type of test: cell-based. The method, then: as §1
Another test has as its system Proteus Morgani 179. In words: MIC in vitro. Type of test: cell-based. The method, then: as §1
For the next test, the system named is Strep. faecalis HH 34358. In words: MIC in vitro. The class given is cell-based. Particulars: Enterococcus faecalis, HH34358, Strep. faecalis HH 34358. The method, then:
as §1

A further test relates to E. coli HH 33779. Description: MIC in vitro. Type of test: cell-based. Particulars: Escherichia coli, HH33779. How it is done: as §1
The next test has as its system Kleb. pneumo. SK 4200. Description: MIC in vitro. As to conditions: read-out: MIC in vitro. The class given is cell-based. The method, then: as §1
Test [1] has as its system Entero. aerog. ATCC 13048. Description: MIC in vitro. Type of test: cell-based. The method, then:
as §1

Another test concerns Serra. marc. ATCC 13880. In words: MIC in vitro. The class given is cell-based. The method, then:
as §1

The next test has as its system Kleb. pneumo. SK 1200. In words: MIC in vitro. The class given is cell-based. The method, then: as §1
In the next test the test system is S. aureus SK 23390. In words: MIC in vitro. Type of test: cell-based. As to conditions: Staphylococcus aureus. How it is done:
as §1

The next test deals with E. coli SK 12140. In words: MIC in vitro. As to conditions: Escherichia coli, SK12140; E. coli SK 12140; read-out: MIC in vitro. Type of test: cell-based. How it is done: as §1
For a further test, the system named is E. coli 12140. In words: In vivo mouse protection (ED50).
In another test the test system is Kleb. pneumo. 4200. Description: In vivo mouse protection (ED50). As to conditions: for ED50: Mus musculus.
For another test, the system named is Entero. cloacae HH 31254. In words: MIC in vitro. The class given is cell-based. Particulars: for MIC: Enterobacter cloacae. The method, then: as §1
A further test deals with Pseudo. sp. HH 63. Description: MIC in vitro. Type of test: cell-based. How it is done:
as §1

Where [2] appears, read: HH127, S. aureus HH 127, read-out: MIC in vitro.
[3] abbreviates: Kleb. pneumo. SK 1200, read-out: MIC in vitro.
Where [4] appears, read: SK23390, S. aureus SK 23390, read-out: MIC in vitro.
Where [5] appears, read: Escherichia coli, 12140, po, E. coli 12140, p.o.
Where [6] appears, read: Escherichia coli, 12140, sc, E. coli 12140, s.c.

For the compound `CCOC(=O)c1nn[nH]c1SCC1=C(C(=O)O)N2C(=O)C(NC(=O)[C@H](N)c3ccccc3)[C@H]2SC1` (stereo partly drawn) [II, 7-(D-α-Aminophenylacetamido)-3-(4-carbethoxy-1,2,3-triazol-5-ylthiomethyl)-3-cephem-4-carboxylic acid], the MIC is 100 µg/mL (≈ 193 µM) in the test on S. villaluz; 13 µg/mL (≈ 25.1 µM) in the test on Salmonella ATCC 12176; 6 µg/mL (≈ 11.6 µM) in the test on S. aureus HH 127 (setting [2]); 13 µg/mL (≈ 25.1 µM) with Shigella HH 117; more than 200 µg/mL in the test on Proteus Morgani 179; 100 µg/mL (≈ 193 µM) in the test with Strep. faecalis HH 34358. The minimal inhibitory concentration (MIC) is 50 µg/mL (≈ 96.4 µM) against E. coli HH 33779; 25 µg/mL (≈ 48.2 µM) in the test on Kleb. pneumo. SK 4200 (Kleb. pneumo. SK 4200); 50 µg/mL (≈ 96.4 µM) in test [1]; more than 200 µg/mL against Serra. marc. ATCC 13880; 50 µg/mL (≈ 96.4 µM) in the test on Kleb. pneumo. SK 1200 (setting [3]); 6 µg/mL (≈ 11.6 µM) in the test with S. aureus SK 23390 (setting [4]). For the same compound, the MIC in the test with E. coli SK 12140 was determined as 25 µg/mL (≈ 48.2 µM).

As to `O=C(O)C1=C(CSc2[nH]nnc2C(=O)O)CS[C@@H]2C(NC(=O)[C@H](O)c3ccccc3)C(=O)N12` (stereo partly drawn) [VI, 7-D-Mandelamido-3-(4-carboxy-1,2,3-triazol-5-ylthiomethyl)-3-cephem-4-carboxylic acid], the ED50 was more than 200 mg/kg in the test on E. coli 12140 (setting [5]); 25 mg/kg with E. coli 12140 (setting [6]); more than 200 mg/kg in the test with Kleb. pneumo. 4200 (po, Kleb. pneumo. 4200, p.o.); 86 mg/kg with Kleb. pneumo. 4200 (sc, Kleb. pneumo. 4200, s.c.). Besides, the MIC is 12.5 µg/mL (≈ 25.4 µM) in the test on Entero. cloacae HH 31254 (HH31254, read-out: MIC in vitro); 200 µg/mL (≈ 407 µM) in the test on S. villaluz; 12.5 µg/mL (≈ 25.4 µM) in the test with Salmonella ATCC 12176; 6.3 µg/mL (≈ 12.8 µM) with S. aureus HH 127 (HH127, read-out: MIC in vitro); 6.3 µg/mL (≈ 12.8 µM) in the test with Shigella HH 117; more than 200 µg/mL against Proteus Morgani 179. The MIC was more than 200 µg/mL with Strep. faecalis HH 34358; 25 µg/mL (≈ 50.9 µM) in the test with E. coli HH 33779; 12.5 µg/mL (≈ 25.4 µM) in the test on Kleb. pneumo. SK 4200; 50 µg/mL (≈ 102 µM) in test [1]; more than 200 µg/mL against Serra. marc. ATCC 13880; more than 200 µg/mL against Pseudo. sp. HH 63. Moreover, the MIC in the test on Kleb. pneumo. SK 1200 (setting [3]) was found to be 3.1 µg/mL (≈ 6.31 µM); in the test on S. aureus SK 23390 (SK23390, read-out: MIC in vitro) it was 3.1 µg/mL (≈ 6.31 µM); in the test with E. coli SK 12140 it was 6.3 µg/mL (≈ 12.8 µM).

For the compound `CCOC(=O)Cc1nc(SCC2=C(C(=O)O)N3C(=O)C(NC(=O)[C@H](N)c4ccccc4)[C@H]3SC2)n[nH]1` (stereo partly drawn) [III, 7-(D-α-Aminophenylacetamido)-3-(5-carbethoxymethyl-1,2,4-triazol-3-ylthiomethyl)-3-cephem-4-carboxylic acid], the median effective dose (ED50) with E. coli 12140 (setting [5]) was 78 mg/kg; in the test on Kleb. pneumo. 4200 (po, Kleb. pneumo. 4200, p.o.), 50 mg/kg; in the test with Kleb. pneumo. 4200 (sc, Kleb. pneumo. 4200, s.c.), less than 3 mg/kg. In addition, the ED50 in vivo in the test on Kleb. pneumo. 4200 (Kleb. pneumo. 4200, s.c.) was determined as 3 mg/kg. Also, the MIC was 25 µg/mL (≈ 46.9 µM) against Salmonella ATCC 12176; 6 µg/mL (≈ 11.3 µM) with S. aureus HH 127 (setting [2]); 13 µg/mL (≈ 24.4 µM) against Shigella HH 117; more than 200 µg/mL against Proteus Morgani 179; 100 µg/mL (≈ 188 µM) in the test with Strep. faecalis HH 34358; 50 µg/mL (≈ 93.9 µM) against E. coli HH 33779. Further, the MIC with Kleb. pneumo. SK 4200 (Kleb. pneumo. SK 4200) is 25 µg/mL (≈ 46.9 µM); in test [1], 100 µg/mL (≈ 188 µM); with Serra. marc. ATCC 13880, more than 200 µg/mL; in the test with Kleb. pneumo. SK 1200 (setting [3]), 25 µg/mL (≈ 46.9 µM); in the test with S. aureus SK 23390 (setting [4]), 6 µg/mL (≈ 11.3 µM); in the test with E. coli SK 12140 it was 50 µg/mL (≈ 93.9 µM).

In the case of `O=C(O)Cc1nc(SCC2=C(C(=O)O)N3C(=O)C(NC(=O)[C@H](O)c4ccccc4)[C@H]3SC2)n[nH]1` (stereo partly drawn) [IX, 7-D-Mandelamido-3-(5-carboxymethyl-1,2,4-triazol-3-ylthiomethyl)-3-cephem-4-carboxylic acid], the ED50 in the test with E. coli 12140 (setting [5]) amounted to 41 mg/kg; in the test on E. coli 12140 (setting [6]), 1 mg/kg; in the test with Kleb. pneumo. 4200 (po, Kleb. pneumo. 4200, p.o.), 71 mg/kg; in the test on Kleb. pneumo. 4200 (sc, Kleb. pneumo. 4200, s.c.), 1.5 mg/kg. In the test with Kleb. pneumo. 4200 (Kleb. pneumo. 4200, s.c.), this compound registered an ED50 in vivo of less than 3 mg/kg. The MIC in vitro with Entero. cloacae HH 31254 (Entero. cloacae HH 31254) is 1.6 µg/mL (≈ 3.16 µM); with Shigella HH 117 (Shigella HH 117) it was 1.6 µg/mL (≈ 3.16 µM); with Serra. marc. ATCC 13880, 200 µg/mL (≈ 396 µM); with Kleb. pneumo. SK 1200 (Kleb. pneumo. SK 1200), 0.2 µg/mL (≈ 0.396 µM). In addition, the MIC in the test on Entero. cloacae HH 31254 (HH31254, Entero. cloacae HH 31254, read-out: MIC in vitro) was 3.1 µg/mL (≈ 6.13 µM); with Salmonella ATCC 12176, 1.6 µg/mL (≈ 3.16 µM); in the test with S. aureus HH 127 (HH127, read-out: MIC in vitro), 3.1 µg/mL (≈ 6.13 µM); with Shigella HH 117, 0.8 µg/mL (≈ 1.58 µM); against Proteus Morgani 179, 200 µg/mL (≈ 396 µM); in the test on Strep. faecalis HH 34358 it was 200 µg/mL (≈ 396 µM). The minimal inhibitory concentration (MIC) against E. coli HH 33779 is 3.1 µg/mL (≈ 6.13 µM); in the test with Kleb. pneumo. SK 4200 (Kleb. pneumo. SK 4200), 1.6 µg/mL (≈ 3.16 µM); in test [1], 6.3 µg/mL (≈ 12.5 µM); in the test on Serra. marc. ATCC 13880 it was more than 200 µg/mL; against Pseudo. sp. HH 63, more than 200 µg/mL; in the test with Kleb. pneumo. SK 1200 (read-out: MIC in vitro, Kleb. pneumo. SK 1200), 0.4 µg/mL (≈ 0.791 µM). Besides, the MIC with S. aureus SK 23390 (setting [4]) came out at 1.6 µg/mL (≈ 3.16 µM); with E. coli SK 12140, 3.1 µg/mL (≈ 6.13 µM).
